Laboratory results published in PubChem BioAssay (NCI).
Values joined by “and” are separate entries in the source; they are usually repeats but may differ in a detail not shown here. Identical values can stand only once.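 The compound was tested at five concentrations on cells cultured in 96-well plates, with a 48-hour exposure period. GI50 = concentration required for 50% inhibition of growth. TGI is the concentration that stops growth completely.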

What was measured:
Experiment in all cases: NCI-60 cell line screen, 48 h
MALME-3M melanoma = tested on: MALME-3M melanoma
PC-3 prostate = tested on: PC-3 prostate
DU-145 prostate = tested on: DU-145 prostate
OVCAR-8 ovarian = tested on: OVCAR-8 ovarian
ACHN renal = tested on: ACHN renal
HL-60(TB) leukemia = tested on: HL-60(TB) leukemia
T-47D breast = tested on: T-47D breast
A498 renal = tested on: A498 renal
CAKI-1 renal = tested on: CAKI-1 renal
UO-31 renal = tested on: UO-31 renal

SMILES	GI50 (MALME-3M melanoma) [µM]	TGI (MALME-3M melanoma)	TGI (PC-3 prostate) [µM]	TGI (DU-145 prostate) [µM]	GI50 (OVCAR-8 ovarian) [µM]	TGI (OVCAR-8 ovarian)	TGI (ACHN renal)	TGI (HL-60(TB) leukemia) [µM]	TGI (T-47D breast) [µM]	TGI (A498 renal) [µM]	TGI (CAKI-1 renal)	GI50 (UO-31 renal) [µM]	TGI (UO-31 renal)	GI50 (PC-3 prostate) [µM]	GI50 (ACHN renal) [µM]	GI50 (CAKI-1 renal) [µM]	GI50 (HL-60(TB) leukemia) [µM]
NC(CS)C(=O)NCCNc1ccc(NCCNC(=O)C(N)CS)c2c1C(=O)c1c(O)ccc(O)c1C2=O (centres undefined)	0.0818	1.27 µM and 1.24 µM	1.13	0.123	0.0108	0.574 µM and 0.174 µM	0.123 µM and 0.104 µM	0.0414	1.45	0.344	0.566 µM and 0.104 µM	0.0598	0.477 µM and 0.316 µM	–	–	–	–
CCc1n[nH]c(=O)n1N=C(c1ccccc1)c1ccccc1	–	> 100 µM	> 100	> 100	–	> 100 µM	> 100 µM	> 100	> 100	> 100	> 100 µM	–	> 100 µM	–	–	–	–
Cc1sc2nc3n(c(=O)c2c1C)N=C(c1ccccc1)CS3	–	> 100 µM	> 100	> 100	–	> 100 µM	> 100 µM	> 100	> 100	> 100	> 100 µM	–	> 100 µM	–	–	–	–
O=C1CCc2ccccc2O1	–	> 100 µM	> 100	> 100	–	> 100 µM	> 100 µM	> 100	> 100	> 100	> 100 µM	–	> 100 µM	–	–	–	–
N#CCN1CCCN(CC#N)CCN(CC#N)CCCN(CC#N)CC1	–	> 100 µM	> 100	> 100	–	> 100 µM	> 100 µM	> 100	> 100	> 100	> 100 µM	–	> 100 µM	–	–	–	–
Nc1nc(N)c2nc(CNc3ccc(C(=O)NC(CCNC(=O)c4ccccc4C(=O)O)C(=O)O)cc3)cnc2n1 (centres undefined)	–	> 100 µM	> 100	> 100	0.00813	> 100 µM	> 100 µM	> 100	> 100	> 100	> 100 µM	0.04	> 100 µM	0.00666	0.0451	0.0666	–
N#CC(C#N)C1CN2CCC1CC2 (centres undefined)	–	> 100 µM	> 100	> 100	–	> 100 µM	> 100 µM	> 100	> 100	> 100	> 100 µM	–	> 100 µM	–	–	–	–
COc1cc(/C=C/C2=NN(c3cccc(S(=O)(=O)O)c3)C3(C2)SCC(=O)N3c2nc3ccccc3s2)cc(OC)c1OC (centres undefined)	–	> 100 µM	> 100	> 100	–	> 100 µM	> 100 µM	> 100	47.8	> 100	> 100 µM	–	> 100 µM	–	–	–	–
COc1cc2nc3n(c(=O)c2cc1OC)CCCCC3	–	> 100 µM	> 100	> 100	–	> 100 µM	> 100 µM	> 100	> 100	> 100	> 100 µM	–	> 100 µM	–	–	–	–
O=C1C=CC(=O)[C@H]2C3C=CC(C4C3C3(Cl)C(Cl)=C(Cl)[C@]4(Cl)C3(Cl)Cl)[C@@H]12 (some centres undefined)	–	22.6 µM	16.4	21.3	–	20.7 µM	20.9 µM	4.63	23.2	31.7	30.2 µM	–	22.1 µM	–	–	–	–
CON(C(=O)OC(C)(C)C)c1ccccc1	–	> 100 µM	> 100	> 100	–	> 100 µM	> 100 µM	> 100	> 100	> 100	> 100 µM	–	> 100 µM	–	–	–	–
Cc1cc2c(cc1-c1cc3c(cc1C)C(C(C)C)=C(O)C(=O)/C3=C\Nc1ccccn1)/C(=C/Nc1ccccn1)C(=O)C(O)=C2C(C)C	–	67.6 µM	> 100	> 100	–	> 100 µM	> 100 µM	99.2	> 100	> 100	> 100 µM	–	–	–	–	–	–
O=C1c2c(F)c(F)c(F)c(F)c2SC2=Nc3cccc4cccc(c34)N12	–	9.24 µM	17.2	24.9	–	17.7 µM	16.8 µM	> 20	4.9	35.2	29 µM	–	21.7 µM	–	–	–	–
Clc1ccc(Nc2nnc(CNc3ccc(-c4nnc(Nc5ccc(Cl)cc5)o4)cc3)o2)cc1	–	28.5 µM	25.3	26.2	–	25.7 µM	43.6 µM	> 100	56.6	28.9	33.9 µM	–	35.2 µM	–	–	–	–
CCOC(=O)CCC(C(=O)OCC)n1nnc2ccc(Nc3c(C)[n+]([O-])c4cc(F)c(OCC)cc4[n+]3[O-])cc21 (centres undefined)	–	> 100 µM	> 100	> 100	–	> 100 µM	> 100 µM	> 100	> 100	> 100	> 100 µM	–	> 100 µM	–	–	–	–
COc1cc2c(cc1OC)-c1[nH]c3ccc([N+](=O)[O-])cc3c1CC(=O)N2	–	9.34 µM	99.4	> 100	–	> 100 µM	6.2 µM	7.31	> 60.5	8.31	> 26.9 µM	–	> 23.8 µM	–	–	–	–
COc1cc(C2c3cc4c(cc3OC(NNc3ccccc3)C2C)OCO4)cc(OC)c1O (centres undefined)	–	11 µM	14.9	17.5	–	23.8 µM	10.4 µM	5.18	10.7	16.3	> 92 µM	–	13.3 µM	–	–	–	–
CC(=O)CC12NC(=O)N(C)N=C1N(C)C(=O)N(C)C2=O (centres undefined)	–	26.5 µM	> 100	> 100	–	> 100 µM	> 100 µM	> 100	> 100	> 100	> 100 µM	–	> 100 µM	–	–	–	–
COc1ccccc1[C@@H]1CCC2CC[C@@H](c3ccccc3OC)[N+]21Cc1ccccc1 (some centres undefined)	–	15.3 µM	7.94	13.7	–	13.8 µM	12.6 µM	4.88	10.8	7.66	18.8 µM	–	10.6 µM	–	–	–	–
O=C1C(=O)N(C23CC4CC(CC(C4)C2)C3)C(=S)N1c1ccccc1	–	> 100 µM	> 100	> 100	–	> 100 µM	> 100 µM	> 100	> 100	> 100	> 100 µM	–	> 100 µM	–	–	–	–
O=[N+]([O-])c1ccc2c(N=Nc3ccc4ccccc4c3O)c(O)cc(S(=O)(=O)O)c2c1	–	85 µM	> 100	> 88.4	–	> 93.6 µM	50.3 µM	23.1	> 100	> 100	> 80.6 µM	–	47.4 µM	–	–	–	–
CN(C)CCCN=c1c2ccccc2n(C)c2[nH]c(=O)n(C)c(=O)c12	–	11 µM	22.4	> 79	–	> 100 µM	98.3 µM	6.47	> 54.7	38	> 100 µM	–	27.2 µM	–	–	–	–
COc1cc(/C=C/c2ccc(S(N)(=O)=O)cc2)cc(OC)c1	–	41.6 µM	56.1	72.8	37.9	> 100 µM	66.3 µM	42.6	41.6	39.5	47.3 µM	–	52 µM	–	23.5	19	18.6
COC(=O)C1=C(C)NC2=C(C(=O)c3ccccc32)C1c1cn[nH]c1-c1ccccc1 (centres undefined)	–	> 100 µM	> 100	> 100	–	> 100 µM	> 100 µM	> 100	> 100	> 100	> 100 µM	–	> 100 µM	–	–	–	–
CCOC(=O)[C@@]12NN=N[C@@H]1[C@H]1CO[C@H](c3ccccc3)N1C2=O	–	26.8 µM	26	34.3	–	23.7 µM	28.2 µM	> 100	36	24.1	24.8 µM	–	–	–	–	–	–
O=C(NCCCc1cn[nH]c(=O)n1)c1cccc2nc3ccccc3nc12	–	> 100 µM	> 100	> 100	–	> 100 µM	> 100 µM	> 100	> 100	> 100	> 100 µM	–	–	–	–	–	–
NCCN(CCN)/[N+]([O-])=N/O	–	> 100 µM	> 100	> 100	–	> 100 µM	> 100 µM	> 100	> 100	> 100	> 100 µM	–	> 100 µM	–	–	–	–
COc1cccc(/C=N/NC(=O)CN(C)C)c1O	–	> 100 µM	> 100	> 100	–	> 100 µM	> 100 µM	> 100	> 100	> 100	> 100 µM	–	> 100 µM	–	–	–	–
